Measured values published in ChEMBL document CHEMBL4622868, “Design and synthesis of amphiphilic 2-hydroxybenzylphosphonium salts with antimicrobial and antitumor dual action” (Bioorg Med Chem Lett, 2020).
Converted amounts (≈) assume the structure as drawn. The source made the active and inactive calls. The calls are words filed in the database; no cut-off is given here. Non-standard residues stand in square brackets, D forms with d. Residues, ends and D or L forms follow the SMILES beside them. Orn = NCCC[C@H](N)C(=O)O

What was measured:
Staphylococcus aureus [1] = experiment: Antibacterial activity against Staphylococcus aureus ATCC 209p; type: functional
Staphylococcus aureus [2] = experiment: Bactericidal activity against Staphylococcus aureus ATCC 209p; type: functional
Bacillus cereus [3] = experiment: Antibacterial activity against Bacillus cereus; type: functional
Bacillus cereus [4] = experiment: Bactericidal activity against Bacillus cereus; type: functional
[5] = system: Trichophyton mentagrophytes; experiment: Antifungal activity against Trichophyton mentagrophytes; type: functional
[6] = system: Trichophyton mentagrophytes; experiment: Fungicidal activity against Trichophyton mentagrophytes; type: functional
Candida albicans [7] = experiment: Antifungal activity against Candida albicans; type: functional
Candida albicans [8] = experiment: Fungicidal activity against Candida albicans; type: functional
Staphylococcus aureus [9] = experiment: Antibacterial activity against clinical isolate amoxicillin and ciprofloxacin resistance Staphylococcus aureus; type: functional
Staphylococcus aureus [10] = experiment: Bactericidal activity against clinical isolate amoxicillin and ciprofloxacin resistance Staphylococcus aureus; type: functional
Staphylococcus aureus [11] = experiment: Antibacterial activity against clinical isolate amoxicillin resistance Staphylococcus aureus; type: functional
Staphylococcus aureus [12] = experiment: Bactericidal activity against clinical isolate amoxicillin resistance Staphylococcus aureus; type: functional
[13] = Hemolytic activity against RBC (unknown origin) at 480 uM; type: ADME, cell-based, Erythrocyte; conditions: red blood cells (erythrocytes); read-out: Activity
[14] = Hemolytic activity against RBC (unknown origin) at 240 uM; type: ADME, cell-based, Erythrocyte; conditions: red blood cells (erythrocytes); read-out: Activity
[15] = Hemolytic activity against RBC (unknown origin) at 120 uM; type: ADME, cell-based, Erythrocyte; conditions: red blood cells (erythrocytes); read-out: Activity
[16] = Hemolytic activity against RBC (unknown origin) at 60 uM; type: ADME, cell-based, Erythrocyte; conditions: red blood cells (erythrocytes); read-out: Activity
[17] = Hemolytic activity against RBC (unknown origin) at 40 uM; type: ADME, cell-based, Erythrocyte; conditions: red blood cells (erythrocytes); read-out: Activity
[18] = Hemolytic activity against RBC (unknown origin) at 20 uM; type: ADME, cell-based, Erythrocyte; conditions: red blood cells (erythrocytes); read-out: Activity
[19] = Hemolytic activity against RBC (unknown origin) at 10 uM; type: ADME, cell-based, Erythrocyte; conditions: red blood cells (erythrocytes); read-out: Activity
[20] = Hemolytic activity against RBC (unknown origin) at 5 uM; type: ADME, cell-based, Erythrocyte; conditions: red blood cells (erythrocytes); read-out: Activity
[21] = Hemolytic activity against RBC (unknown origin) at 1 uM; type: ADME, cell-based, Erythrocyte; conditions: red blood cells (erythrocytes); read-out: Activity
M-HeLa = experiment: Cytotoxicity against human M-HeLa cells; type: functional, cell-based
MCF7 = experiment: Cytotoxicity against human MCF7 cells; type: functional, cell-based
HepG2 = experiment: Cytotoxicity against human HepG2 cells; type: functional, cell-based
PANC-1 = experiment: Cytotoxicity against human PANC1 cells; type: functional, cell-based
[22] = Cytotoxicity against human Chang cells; type: cell-based
[23] = Selectivity index, ratio of IC50 for human Chang cells to IC50 for human M-HeLa cells
[24] = Selectivity index, ratio of IC50 for human Chang cells to IC50 for human MCF7 cells
[25] = Selectivity index, ratio of IC50 for human Chang cells to IC50 for human HepG2 cells
[26] = Selectivity index, ratio of IC50 for human Chang cells to IC50 for human PANC1 cells

CCCCCCCCCCCCCC[P+](Cc1ccccc1O)(c1ccccc1)c1ccccc1.[Cl-]
MIC (Staphylococcus aureus [1]): 3.6 µM
MBC (Staphylococcus aureus [2]): 14.8 µM
MIC (Bacillus cereus [3]): 3.6 µM
MBC (Bacillus cereus [4]): 478 µM
MIC [5]: 478 µM
MFC [6]: inactive
MIC (Candida albicans [7]): 478 µM
MFC (Candida albicans [8]): inactive
MIC (Staphylococcus aureus [9]): 7.2 µM
MBC (Staphylococcus aureus [10]): 28.8 µM
MIC (Staphylococcus aureus [11]): 7.2 µM
MBC (Staphylococcus aureus [12]): 28.8 µM
hemolysis at 480 µM [13]: 100%
hemolysis at 240 µM [14]: 100%
hemolysis at 120 µM [15]: 100%
hemolysis at 60 µM [16]: 74%
hemolysis at 40 µM [17]: 0.3%
hemolysis at 20 µM [18]: 0%
hemolysis at 10 µM [19]: 0%
hemolysis at 5 µM [20]: 0%
hemolysis at 1 µM [21]: 0%
IC50 (M-HeLa): 3.5 µM
IC50 (MCF7): 6.6 µM
IC50 (HepG2; read-out: IC50): 6.6 µM
IC50 (PANC-1): 25 µM
IC50 [22]: 42.3 µM
Ratio IC50 [23]: 12.1
Ratio IC50 [24]: 6.4
Ratio IC50 [25]: 6.4
Ratio IC50 [26]: 1.7

CCCCCC[P+](Cc1ccccc1O)(c1ccccc1)c1ccccc1.[Cl-]
MIC (Staphylococcus aureus [1]): 18.9 µM
MBC (Staphylococcus aureus [2]): 37.8 µM
MIC (Bacillus cereus [3]): 37.8 µM
MBC (Bacillus cereus [4]): 152 µM
MIC [5]: 606 µM
MFC [6]: inactive
MIC (Candida albicans [7]): 606 µM
MFC (Candida albicans [8]): inactive
MIC (Staphylococcus aureus [9]): 75.6 µM
MBC (Staphylococcus aureus [10]): 302 µM
MIC (Staphylococcus aureus [11]): 37.8 µM
MBC (Staphylococcus aureus [12]): 151 µM
hemolysis at 480 µM [13]: 4.8%
hemolysis at 240 µM [14]: 2.5%
hemolysis at 120 µM [15]: 0.4%
hemolysis at 60 µM [16]: 0.3%
hemolysis at 40 µM [17]: 0.2%
hemolysis at 20 µM [18]: 0.2%
hemolysis at 10 µM [19]: 0%
hemolysis at 5 µM [20]: 0%
hemolysis at 1 µM [21]: 0%
IC50 (M-HeLa): 50 µM
IC50 (MCF7): 86 µM
IC50 (HepG2; read-out: IC50): 83 µM
IC50 (PANC-1): 82 µM
IC50 [22]: 65.3 µM
Ratio IC50 [23]: 1.3
Ratio IC50 [24]: 0.76
Ratio IC50 [25]: 0.78
Ratio IC50 [26]: 0.79

O=C(O)c1cn(C2CC2)c2cc(N3CCNCC3)c(F)cc2c1=O [CIPROFLOXACIN]
MIC (Staphylococcus aureus [1]): 0.7 µM (≈ 0.232 µg/mL)
MBC (Staphylococcus aureus [2]): 1.5 µM (≈ 0.497 µg/mL)
MIC (Bacillus cereus [3]): 0.7 µM (≈ 0.232 µg/mL)
MBC (Bacillus cereus [4]): 1.5 µM (≈ 0.497 µg/mL)

CCCCCCC[P+](Cc1ccccc1O)(c1ccccc1)c1ccccc1.[Cl-]
MIC (Staphylococcus aureus [1]): 18.3 µM
MBC (Staphylococcus aureus [2]): 18.3 µM
MIC (Bacillus cereus [3]): 36.6 µM
MBC (Bacillus cereus [4]): 146 µM
MIC [5]: 586 µM
MFC [6]: inactive
MIC (Candida albicans [7]): 586 µM
MFC (Candida albicans [8]): inactive
MIC (Staphylococcus aureus [9]): 36.6 µM
MBC (Staphylococcus aureus [10]): 146 µM
MIC (Staphylococcus aureus [11]): 73.2 µM
MBC (Staphylococcus aureus [12]): 73.2 µM
hemolysis at 480 µM [13]: 3.6%
hemolysis at 240 µM [14]: 1.9%
hemolysis at 120 µM [15]: 0.4%
hemolysis at 60 µM [16]: 0.3%
hemolysis at 40 µM [17]: 0.3%
hemolysis at 20 µM [18]: 0.3%
hemolysis at 10 µM [19]: 0.2%
hemolysis at 5 µM [20]: 0%
hemolysis at 1 µM [21]: 0%
IC50 (M-HeLa): 5.5 µM
IC50 (MCF7): 32.8 µM
IC50 (HepG2; read-out: IC50): 26.3 µM
IC50 (PANC-1): 40 µM
IC50 [22]: 41.6 µM
Ratio IC50 [23]: 7.6
Ratio IC50 [24]: 1.3
Ratio IC50 [25]: 1.6
Ratio IC50 [26]: 1.04

C=CCCCC[P+](Cc1ccccc1O)(c1ccccc1)c1ccccc1
MIC (Staphylococcus aureus [1]): 609 µM
MBC (Staphylococcus aureus [2]): inactive
MIC (Bacillus cereus [3]): inactive
MBC (Bacillus cereus [4]): inactive
MIC [5]: inactive
MFC [6]: inactive
MIC (Candida albicans [7]): inactive
MFC (Candida albicans [8]): inactive
MIC (Staphylococcus aureus [9]): inactive
MBC (Staphylococcus aureus [10]): inactive
MIC (Staphylococcus aureus [11]): inactive
MBC (Staphylococcus aureus [12]): inactive

CCCCCCCCCCCCCCCC[P+](Cc1ccccc1O)(c1ccccc1)c1ccccc1.[Cl-]
MIC (Staphylococcus aureus [1]): 3.4 µM
MBC (Staphylococcus aureus [2]): 28.2 µM
MIC (Bacillus cereus [3]): 14.1 µM
MBC (Bacillus cereus [4]): 452 µM
MIC [5]: 56.6 µM
MFC [6]: inactive
MIC (Candida albicans [7]): 56.6 µM
MFC (Candida albicans [8]): inactive
MIC (Staphylococcus aureus [9]): 28.2 µM
MBC (Staphylococcus aureus [10]): inactive
MIC (Staphylococcus aureus [11]): 14.1 µM
MBC (Staphylococcus aureus [12]): 113 µM
hemolysis at 480 µM [13]: 100%
hemolysis at 240 µM [14]: 100%
hemolysis at 120 µM [15]: 100%
hemolysis at 60 µM [16]: 98%
hemolysis at 40 µM [17]: 2.5%
hemolysis at 20 µM [18]: 2.1%
hemolysis at 10 µM [19]: 0.9%
hemolysis at 5 µM [20]: 0.3%
hemolysis at 1 µM [21]: 0.3%
IC50 (M-HeLa): 3.2 µM
IC50 (MCF7): 13.2 µM
IC50 (HepG2; read-out: IC50): 12.6 µM
IC50 (PANC-1): 25.7 µM
IC50 [22]: 45.2 µM
Ratio IC50 [23]: 14.1
Ratio IC50 [24]: 3.4
Ratio IC50 [25]: 3.6
Ratio IC50 [26]: 1.8

CC1(C)S[C@@H]2[C@H](NC(=O)[C@H](N)c3ccc(O)cc3)C(=O)N2[C@H]1C(=O)O [AMOXICILLIN]
MIC (Staphylococcus aureus [9]): 94.4 µM (≈ 34.5 µg/mL)
MBC (Staphylococcus aureus [10]): 94.4 µM (≈ 34.5 µg/mL)
MIC (Staphylococcus aureus [11]): 85.6 µM (≈ 31.3 µg/mL)
MBC (Staphylococcus aureus [12]): 85.6 µM (≈ 31.3 µg/mL)

CCCCCCCC[P+](Cc1ccccc1O)(c1ccccc1)c1ccccc1.[Cl-]
MIC (Staphylococcus aureus [1]): 8.8 µM
MBC (Staphylococcus aureus [2]): 8.8 µM
MIC (Bacillus cereus [3]): 17.7 µM
MBC (Bacillus cereus [4]): 17.7 µM
MIC [5]: 284 µM
MFC [6]: inactive
MIC (Candida albicans [7]): 284 µM
MFC (Candida albicans [8]): inactive
MIC (Staphylococcus aureus [9]): 35.4 µM
MBC (Staphylococcus aureus [10]): 142 µM
MIC (Staphylococcus aureus [11]): 17.7 µM
MBC (Staphylococcus aureus [12]): 35.4 µM
hemolysis at 480 µM [13]: 8.5%
hemolysis at 240 µM [14]: 4.8%
hemolysis at 120 µM [15]: 2.3%
hemolysis at 60 µM [16]: 0.6%
hemolysis at 40 µM [17]: 0.4%
hemolysis at 20 µM [18]: 0%
hemolysis at 10 µM [19]: 0%
hemolysis at 5 µM [20]: 0%
hemolysis at 1 µM [21]: 0%
IC50 (M-HeLa): 3.7 µM
IC50 (MCF7): 12.5 µM
IC50 (HepG2; read-out: IC50): 25.7 µM
IC50 (PANC-1): 12.5 µM
IC50 [22]: 46.3 µM
Ratio IC50 [23]: 12.5
Ratio IC50 [24]: 3.7
Ratio IC50 [25]: 1.8
Ratio IC50 [26]: 3.7

CC/C(=C(\c1ccccc1)c1ccc(OCCN(C)C)cc1)c1ccccc1 [TAMOXIFEN]
IC50 (HepG2): 23.4 µM
IC50 [22]: 46.2 µM

CC(C)C[C@@H]1NC(=O)[C@H](CCCN)NC(=O)[C@H](C(C)C)NC(=O)[C@@H]2CCCN2C(=O)[C@@H](Cc2ccccc2)NC(=O)[C@H](CC(C)C)NC(=O)[C@H](CCCN)NC(=O)[C@H](C(C)C)NC(=O)[C@@H]2CCCN2C(=O)[C@@H](Cc2ccccc2)NC1=O (cyclo(L[dF]PV[Orn]L[dF]PV[Orn]))
hemolysis at 480 µM [13]: 100%
hemolysis at 240 µM [14]: 100%
hemolysis at 120 µM [15]: 100%
hemolysis at 60 µM [16]: 99%
hemolysis at 40 µM [17]: 98%
hemolysis at 20 µM [18]: 24%
hemolysis at 10 µM [19]: 1.5%
hemolysis at 5 µM [20]: 0.5%
hemolysis at 1 µM [21]: 0%

COc1cccc2c1C(=O)c1c(O)c3c(c(O)c1C2=O)C[C@@](O)(C(=O)CO)C[C@@H]3O[C@H]1C[C@H](N)[C@H](O)[C@H](C)O1 [DOXORUBICIN]
IC50 (HepG2; read-out: IC50): 3.3 µM
IC50 (PANC-1): 3.2 µM
IC50 [22]: 3 µM

CC1COc2c(N3CCN(C)CC3)c(F)cc3c(=O)c(C(=O)O)cn1c23 (configuration not stated) [OFLOXACIN]
MIC (Staphylococcus aureus [1]): 2.4 µM (≈ 0.867 µg/mL)
MBC (Staphylococcus aureus [2]): 2.4 µM (≈ 0.867 µg/mL)
MIC (Bacillus cereus [3]): 4.1 µM (≈ 1.48 µg/mL)
MBC (Bacillus cereus [4]): 8.5 µM (≈ 3.07 µg/mL)

CC(=O)N1CCN(c2ccc(OCC3COC(Cn4ccnc4)(c4ccc(Cl)cc4Cl)O3)cc2)CC1 (configuration not stated) [KETOCONAZOLE]
MIC [5]: 7.3 µM (≈ 3.88 µg/mL)
MFC [6]: 16.6 µM (≈ 8.82 µg/mL)
MIC (Candida albicans [7]): 7.3 µM (≈ 3.88 µg/mL)
MFC (Candida albicans [8]): 16.6 µM (≈ 8.82 µg/mL)
